Data as given in PubChem BioAssay (NCI).
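Assay format: 96-well plates, 48-hour exposure. Here, GI50 denotes the concentration required for 50% inhibition of growth. TGI denotes the concentration required for complete inhibition of growth.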

Columns and labels:
Experiment in all cases: growth of human tumour cells (NCI), 48 h
ACHN renal = system: ACHN renal
HCT-116 colon = system: HCT-116 colon
HOP-62 NSCLC = system: HOP-62 NSCLC
HT29 colon = system: HT29 colon
NCI-H23 lung = system: NCI-H23 lung
RPMI-8226 leukemia = system: RPMI-8226 leukemia
TK-10 renal = system: TK-10 renal
U251 CNS = system: U251 CNS
UACC-62 melanoma = system: UACC-62 melanoma
OVCAR-4 ovarian = system: OVCAR-4 ovarian

SMILES	TGI (ACHN renal) [µM]	TGI (HCT-116 colon) [µM]	TGI (HOP-62 NSCLC) [µM]	TGI (HT29 colon) [µM]	TGI (NCI-H23 lung) [µM]	TGI (RPMI-8226 leukemia) [µM]	TGI (TK-10 renal) [µM]	TGI (U251 CNS) [µM]	TGI (UACC-62 melanoma) [µM]	GI50 (ACHN renal) [µM]	GI50 (HCT-116 colon) [µM]	GI50 (HOP-62 NSCLC) [µM]	GI50 (HT29 colon) [µM]	GI50 (NCI-H23 lung) [µM]	GI50 (OVCAR-4 ovarian) [µM]	TGI (OVCAR-4 ovarian) [µM]	GI50 (RPMI-8226 leukemia) [µM]	GI50 (U251 CNS) [µM]	GI50 (UACC-62 melanoma) [µM]	GI50 (TK-10 renal) [µM]
O=C1NC2(CCCCC2)C2CCCCC(O)C12 (stereo not given)	> 100	> 100	> 100	> 100	> 100	> 100	> 100	> 100	> 100											
COc1c2ccoc2c(/C=C/C=O)c2oc(-c3ccccc3)cc(=O)c12	> 100	4.73	9.48	> 100	8.08	5.81		12.9	22.7	20.8	1.7	2.49	25.1	2.44	3.2	> 100	2.24	3.06	5.45	
COc1cccc(NC(=O)CC(=O)n2nc(C)c(N=Nc3ccccc3)c2C)c1	> 100	> 100	> 100	> 100	> 100	> 100	> 100	> 100	> 100							> 100				
CN(C)c1ccc(-c2cc(-c3ccc(Nc4nc(Nc5ccc(Cl)cc5)nc(Nc5ccc(Cl)cc5)n4)cc3)no2)cc1	> 100	11.8	24.1	66.5	35.8	17	> 100	61.8	62.2	7.9	2.84	4.8	5.08	6.41	7.19	> 100	2.6	6.27	17.1	16.3
C[C@@H](CS(C)(=O)=O)Nc1ncc2cc(Oc3ccc(F)cc3F)c(=O)n(C)c2n1	> 25	> 25	> 25	> 25	> 25	> 25	> 25	> 25	> 25	> 25	> 25	> 25	> 25	> 25	> 25	> 25	> 25	> 25	> 25	> 25
Cc1nc2c(nc1C)C(=O)c1ccccc1C2=O	35.4	13	10.3	11.7	2.59	45.9	79.5	34.6	2.42							14.1				
O=C(CCl)N1c2ccccc2Oc2ccc3ccccc3c21	2.82	1.29	3.25	1.51	3.08	3.12	1.7	2.7	3	1.37	0.358	1.81	0.432	1.31	1.44	3.34	0.768	1.36	1.57	0.769
COc1cc2nc(-c3ccc(C(F)(F)F)cc3)cc(OCCCN3CCC(O)CC3)c2cc1OC	16.7	17.2	15	10.4	21		25.7	20.6	7.28	3.18	0.671	1.8	0.486	6.16	9.14	22		2.12	2.61	11.5
COc1cc(C(=O)/C=C/c2sc(Cl)nc2Cl)cc(OC)c1OC	3.12	3.18	5.6	5.53	3.04	4.57	4.93	3.69	3.61	1.74	1.75	2.29	2.21	1.64	1.77	3.19	1.69	1.88	1.86	2.06
NC(CSC(c1ccccc1)(c1ccccc1)c1ccc2c(c1)OCO2)C(=O)O (stereo not given)	> 100	29.6	> 100	> 44.5	32	3.77	> 100	> 74.5	> 62.9	4.06	0.358	1.64	1.81	0.545	7.81	> 81.6	0.306	0.405	0.57	10.6
COc1ccc(NC(=O)c2cc(OC)cc(OC)c2)cc1	> 100	> 100	> 100	> 100	> 100	> 100	> 100	> 61.3	> 100							> 100				
O[C@H]1[C@H]2c3cc4c(cc3CN3CCC(=C[C@@H]1O)[C@H]23)OCO4	7.07	> 100	> 27.4	30.6	13.7	5.03	11.9	> 26.7	7.95							8.4				
CN(CC(=O)O)S(=O)(=O)c1ccc2ccccc2c1	> 100			> 100	> 100	> 100	> 100	> 100	> 100							> 100				
CCOC(=O)C1=C(C)CC2C(=O)OC(=O)C2C1(C)C (stereo not given)	> 100			> 100	> 100	> 100	> 100	> 100												
CNC(=O)c1ccccc1Nc1nc(Nc2ccc(N3CCOCC3)cc2OC)ncc1Cl		> 35.3	9.07	4.73	> 43.8	> 48.5	2.01	> 47.8	2.73		0.537	0.341	0.0714	0.571	1.95	> 47.1	2.02	1.94	0.239	0.197
CC(=O)[O][Hg][c]1c(N)c(C)cc(C)c1F	3.08	3.92	5.49			6	3.32	2.06	3.2	1.61	1.88	2.75					1.81	0.672	1.5	1.87
COc1ccccc1NC(=O)CC(=O)n1nc(C)c(N=Nc2ccccc2C(=O)O)c1C		> 100	> 100	> 100	> 100	> 100	> 100	> 100	> 100							> 100				
COc1ccc(-c2cc(=O)c3ccc(O)cc3o2)c(OC)c1OC	> 100	> 100	> 100	> 100	> 100	> 100	> 100		> 100							> 100				
CC(=O)OC1COC(n2c(=S)n(-c3ccc(C)cc3)c(=O)c3ccccc32)C(OC(C)=O)C1OC(C)=O (stereo not given)	> 100	> 100	> 100	> 100	> 100	> 100		> 100	> 100							> 100				

SMILES	TGI (ACHN renal) [µM]	TGI (HCT-116 colon) [µM]	TGI (HOP-62 NSCLC) [µM]	TGI (HT29 colon) [µM]	TGI (NCI-H23 lung) [µM]	TGI (RPMI-8226 leukemia) [µM]	TGI (TK-10 renal) [µM]	TGI (U251 CNS) [µM]	TGI (UACC-62 melanoma) [µM]	GI50 (ACHN renal) [µM]	GI50 (HCT-116 colon) [µM]	GI50 (HOP-62 NSCLC) [µM]	GI50 (HT29 colon) [µM]	GI50 (NCI-H23 lung) [µM]	GI50 (OVCAR-4 ovarian) [µM]	TGI (OVCAR-4 ovarian) [µM]	GI50 (RPMI-8226 leukemia) [µM]	GI50 (U251 CNS) [µM]	GI50 (UACC-62 melanoma) [µM]	GI50 (TK-10 renal) [µM]
COc1ccc2nc3cc(Cl)ccc3c(Sc3ccccc3[N+](=O)[O-])c2c1	> 100	> 100	> 100		> 100		> 100	> 100	> 100							> 100				
NS(=O)(=O)c1ccccc1C(=O)N/N=C(\c1nc2ccc([N+](=O)[O-])cc2[nH]c1=O)C(O)c1ccc([N+](=O)[O-])cc1 (stereo not given)	> 100	> 100		> 100	> 100	> 100	> 100	> 100	> 100							> 100				
CC1=C(C(=O)Nc2ccc(F)c(Cl)c2)C(c2ccc(Cl)cc2)NC(=O)N1 (stereo not given)	63	25.4	30.8	27.8	33.8	36.3	25.4	33.2	27.2	22	12.8	15.5	14.3	17.4			13.6	16.7	14.1	7.4
CC1CN1P1(N2CC2C)=NP(N2CC2C)(N2CC2C)=NP(N2CC2C)(N2CC2C)=N1 (stereo not given)	> 50	> 50		> 50	> 50	> 50	> 50	> 50								> 50				
C=CCc1cc(OC)c2c(c1)C(O)CC(c1ccc(OC)c(OC)c1)O2 (stereo not given)	> 100	> 100	> 100	> 100	> 100		> 100	> 100	> 100							> 100				
CC(C)=CCCc1c(C)ccc2c1C(=O)C(=O)C(C(C)C)=C2	6.84	6.55		> 22	8.52	6.16	8.81	> 22								8.81				
CC(=O)N1[C@H](C(=O)O)CS[C@H]1c1ccncc1	> 100	> 100	> 100	> 100	> 100	> 100	> 100		> 100							> 100				
O=[S@@]1Nc2ccc(Br)cc2S1	> 100	> 100		> 100	> 100	> 100	> 100	> 100	> 100											
CC(=O)OC(C)C(=O)C1c2cccc(O)c2C(=O)c2c(O)cc(C)cc21 (stereo not given)	1.85	1.09	1.01	3.03	1.15	5.98	2.88	1.11								1.56				
O=C(O)CCSC(=O)Nc1cccc(F)c1	> 100		95.7	> 100	> 100	> 100	> 100	> 100												
COc1ccc(C2=CSc3cc(Cl)c(C)cc3S(=O)(=O)N2C(C)=O)cc1	43.7	52.5	> 100		> 100	94	46.7	55.8	48	18.8	21.3	47.2		36.4			26	21.2	13.1	17.8
CNC(=O)c1cc(Oc2ccc3nc(NC(=O)Nc4ccc(Cl)c(C(F)(F)F)c4)sc3c2)ccn1	3.8	5.39	4.74		8.17		4.62			1.85	1.89	1.94		2.48						2.29
CCOC(=O)C(Sc1ccccc1)c1c(OC)cc(=O)oc1/C=[N+](/[O-])c1ccc(N(C)C)cc1 (stereo not given)			> 100	31.4	78.5	48	89.5	60.7	51.8							51.6				
N#CC(C#N)=c1ccc(=C2NCC3CCCN23)cc1 (stereo not given)		> 100	> 100	> 100		> 100	> 100	> 100	> 100							> 100				
Oc1ccc(Cl)cc1-c1cc(-c2ccccc2Cl)[nH]n1	> 100	> 100	> 100	> 100	> 100	> 100	> 100		> 100	8.17	4.6	19.3	15.2	4.91	0.28	> 100	3.15		5.29	29.4
Nc1ccc(C(=O)N/C(=C\c2ccc3c(c2)OCO3)c2nc3[nH]c(=S)[nH]c(=O)c3[nH]2)cc1	> 100			> 100	> 100		> 100	> 100	> 100							> 100				
c1cc2c(cc1NC1=NCCO1)CCC2		> 10	> 10	> 10	> 10	> 10	> 10		> 10							> 10				
C/C(CCn1[nH]c(=O)ccc1=O)=N\O	> 100	> 100	> 100	> 100	> 100	> 100	> 100		> 100							> 100				
